What was measured:
hα7-wt nAChR = biological target: T1, hα7-wt nAChR (Homo sapiens, UniProt P36544); assay: Ca2+ flux imaging (FDSS) (Protocol B), PAM activity with choline as agonist; format: cell-based; details: for EC50: "<5" = no top plateau at maximal concentration; for Emax: read-out: % efficacy
T1 construct: expressed in transfected cells
Experimental: • Hanks buffered saline solution (HBSS, Invitrogen, Belgium), supplemented with 10 mM HEPES (Invitrogen, Belgium), CaCl2 to a final concentration of 5 mM, 0.1% Bovine serum albumin (Sigma-Aldrich NV, Belgium). b) Calcium-Sensitive Dye—Fluo-4AM • Fluo-4AM (Molecular Probes, USA) was dissolved in DMSO containing 10% Pluronic acid (Molecular Probes, USA) to give a stock solution which was diluted in assay buffer supplemented with 5 mM probenicid (Sigma, Aldrich NV, Belgium) to give a final concentration of 2 μM. c) 384-Well Plates • Black 384 well plate black/clear plates, PDL pre-coated (Corning, Incorporated, USA) d) Calcium Flux Measurement
A Functional drug screening system (FDSS, Hamamatsu) was used to measure intracellular free-calcium flux signals.
Monolayers of hα7-wt nAChR-expressing cells were grown in multi-well plates, in particular black-sided, transparent bottomed 384 well plates coated with poly-D-lysine for 24 hours prior to loading with a fluorescent calcium indicator, in a particular embodiment loading with fluo-4AM for up to 120 minutes.
PAM activity was detected in real time by applying the compounds to be tested to the loaded cells along with a α7 nicotinic receptor agonist during constant monitoring of cellular fluorescence in a FDSS. Compounds giving peak fluorescent responses greater than the response due to agonist alone, were considered to be α7 nAChR PAM's. In a particular embodiment, the α7 nicotinic receptor agonist was choline, a more particular embodiment choline applied at a sub-maximal concentration of 100 μM. In a further setting of the present invention the compounds to be tested were applied prior to the α7 nicotinic receptor agonist, in a particular embodiment up to 10 minutes prior to the agonist.
A control response to choline was calculated on each plate from the difference in peak in fluorescence in wells receiving either choline or assay buffer alone. Compounds of the present invention were tested at a concentration range from 0.01 μM to 30 μM. Compounds were considered to have an interesting activity when they potentiated the choline signal at least with 500% when tested at a concentration of 30 μM (the efficacy of 100 μM choline was defined as 100% in the absence of a PAM). The compounds also have a potentiating effect on the response to choline when measured by whole-cell patch clamp electrophysiology in GH4C1 cells stably over-expressing the human wild-type α7 receptor.

T1 sequence (P36544 23-502): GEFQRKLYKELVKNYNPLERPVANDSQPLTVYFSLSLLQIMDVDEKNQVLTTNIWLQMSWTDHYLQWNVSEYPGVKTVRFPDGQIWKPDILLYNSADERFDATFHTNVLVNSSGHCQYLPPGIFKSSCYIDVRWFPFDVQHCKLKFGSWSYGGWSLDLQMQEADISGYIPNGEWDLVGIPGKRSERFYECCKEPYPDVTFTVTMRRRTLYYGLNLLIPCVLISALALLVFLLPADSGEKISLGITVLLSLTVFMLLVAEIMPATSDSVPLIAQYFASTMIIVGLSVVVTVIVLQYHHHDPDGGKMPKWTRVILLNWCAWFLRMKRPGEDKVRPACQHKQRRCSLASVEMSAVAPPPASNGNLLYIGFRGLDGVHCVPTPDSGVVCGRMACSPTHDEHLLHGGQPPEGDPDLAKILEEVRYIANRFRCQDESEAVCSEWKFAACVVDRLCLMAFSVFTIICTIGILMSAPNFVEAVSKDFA

An EC50 (hα7-wt nAChR) of 0.631 µM and a melting point of 260.1 °C were found for `CCNC(=O)Cn1nc(Nc2ccc3c(c2)OC(F)(F)O3)nc1-c1ccnc2c1CCC2` [Compound 204] in this work.

An EC50 (hα7-wt nAChR) of 0.794 µM and a melting point of 158.2 °C were found for `CN(C)C(=O)CCn1nc(Nc2cc(F)c(F)cc2F)nc1-c1ccc(NC2CC2)nc1` [Compound 193] in this work.

An EC50 (hα7-wt nAChR) of 0.794 µM and a melting point of 168.8 °C were found for `CN(C)C(=O)CCCn1nc(Nc2ccc(F)c(C(F)(F)F)c2)nc1-c1ccnc(Cl)c1` [Compound 68] in this work.

An EC50 (hα7-wt nAChR) of 2.51 µM and a melting point of 126.5 °C were found for `FCCn1nc(Nc2ccc(F)c(C(F)(F)F)c2)nc1-c1ccc(C2CC2)nc1` [Compound 96] in this work.

An EC50 (hα7-wt nAChR) of 0.316 µM and a melting point of 114.3 to 116.3 °C were found for `CN(C)C(=O)CCn1nc(Nc2cccc(F)c2)nc1-c1ccc2c(c1)OCCO2` [Compound 194] in this work.

An EC50 (hα7-wt nAChR) of 0.2 µM and a melting point of 187.2 °C were found for `COc1cc(-c2nc(Nc3cccc(C(F)(F)F)c3)nn2CCC(=O)N(C)C)cc(C)n1` [Compound 83] in this work.

An EC50 (hα7-wt nAChR) of 0.0501 µM and a melting point of 177.2 °C were found for `CCc1ccc(-c2nc(Nc3ccc(F)c(C(F)(F)F)c3)nn2CCC(=O)N(C)C)cn1` [Compound 128] in this work.

An EC50 (hα7-wt nAChR) of 1.26 µM and a melting point of 159 °C were found for `CC(C)Oc1cc(-c2nc(Nc3cccc(C(F)(F)F)c3)nn2CCO)ccn1` [Compound 74] in this work.

An EC50 (hα7-wt nAChR) of 0.316 µM and a melting point of 182.2 °C were found for `O=C(CCn1nc(Nc2cccc(C(F)(F)F)c2)nc1-c1ccncc1)N1CCCC1` [Compound 85] in this work.

An EC50 (hα7-wt nAChR) of 5.01 µM and a melting point of 130.9 °C were found for `Cc1cc(-c2nc(Nc3cccc(OC(F)(F)F)c3)nn2CC(C)O)ccn1` (stereo not shown) [Compound 148] in this work.

An EC50 (hα7-wt nAChR) greater than 10 µM and a melting point of 184.2 to 188.1 °C were found for `COCCNC(=O)Cn1nc(Nc2cccc(C(F)(F)F)c2)nc1-c1ccncc1` [Compound 24] in this work.

An EC50 (hα7-wt nAChR) of 0.398 µM and a melting point of 167.7 °C were found for `COCCNc1ccc(-c2nc(Nc3ccc(F)c(C(F)(F)F)c3)nn2CCC(=O)N(C)C)cn1` [Compound 131] in this work.

An EC50 (hα7-wt nAChR) of 0.794 µM, an Emax (hα7-wt nAChR) of 963% and a melting point of 182.5 to 186.1 °C were found for `COc1ccc(-c2nc(Nc3cccc(OC(F)(F)F)c3)nn2CC(=O)NC(C)C)cc1OC` [Compound 159] in this work.

An EC50 (hα7-wt nAChR) of 0.158 µM and a melting point of 259.6 °C were found for `CCNC(=O)Cn1nc(Nc2cc(F)c(F)c(F)c2)nc1-c1ccnc(NCC)c1` [Compound 180] in this work.

An EC50 (hα7-wt nAChR) of 2.51 µM and a melting point of 242.4 °C were found for `COc1ncccc1-c1nc(Nc2ccc(F)c(C(F)(F)F)c2)nn1CC(=O)NC1CC1` [Compound 121] in this work.

An EC50 (hα7-wt nAChR) of 2.51 µM and a melting point of 145.6 °C were found for `OCCn1nc(Nc2cccc(C(F)(F)F)c2)nc1-c1ccc(N2CCOCC2)nc1` [Compound 77] in this work.

An EC50 (hα7-wt nAChR) of 2.51 µM and a melting point of 152.9 to 154.9 °C were found for `Cc1cc(C(=O)NCCCn2nc(Nc3cccc(C(F)(F)F)c3)nc2-c2ccncc2)no1` [Compound 8] in this work.

An EC50 (hα7-wt nAChR) of 0.631 µM and a melting point of 192.7 to 195.3 °C were found for `COc1ccc(-c2nc(Nc3cccc(OC(F)(F)F)c3)nn2CC(=O)NC2CC2)cc1OC` [Compound 163] in this work.

An EC50 (hα7-wt nAChR) of 1.26 µM, an Emax (hα7-wt nAChR) of 818% and a melting point of 165.8 °C were found for `COc1ccc(Nc2nc(-c3ccnc(C4CC4)c3)n(CCF)n2)cc1C(F)(F)F` [Compound 44] in this work.

An EC50 (hα7-wt nAChR) of 1.26 µM and a melting point of 171.5 °C were found for `Cc1ncccc1-c1nc(Nc2ccc(F)c(C(F)(F)F)c2)nn1CCC(=O)N(C)C` [Compound 126] in this work.

An EC50 (hα7-wt nAChR) of 1 µM and a melting point of 199.2 °C were found for `CNC(=O)Cn1nc(Nc2ccc(F)c(C(F)(F)F)c2)nc1-c1ccncc1Cl` [Compound 117] in this work.

An EC50 (hα7-wt nAChR) of 1.58 µM and a melting point of 208.6 °C were found for `CNC(=O)Cn1nc(Nc2cccc(OC(F)(F)F)c2)nc1-c1ccncc1NC` [Compound 153] in this work.

An EC50 (hα7-wt nAChR) of 0.631 µM and a melting point of 183 °C were found for `CCc1cc(-c2nc(Nc3ccc(F)c(C(F)(F)F)c3)nn2CCO)ccn1` [Compound 88] in this work.

An EC50 (hα7-wt nAChR) of 2.51 µM and a melting point of 172.3 °C were found for `Cc1cc(-c2nc(Nc3ccc(F)c(C(F)(F)F)c3)nn2CC(=O)N2CCCC2)ccn1` [Compound 124] in this work.

An EC50 (hα7-wt nAChR) of 2.51 µM and a melting point of 277.5 °C were found for `CNC(=O)Cn1nc(Nc2cc(F)c(F)c(F)c2)nc1-c1ccnc(NC)c1` [Compound 36] in this work.

Reference: patent US8143419B2, “Trisubstituted 1,2,4-triazoles” (Janssen Pharmaceutica N. V., priority 2006, dated 2012)
